Experimental data published in ChEMBL document CHEMBL1255330, “Efficacy of SPK-843, a novel polyene antifungal, in a murine model of systemic cryptococcosis” (Antimicrob Agents Chemother, 2008).
In brackets after ≈: the same amount, converted by molar mass. Activity calls are given as the source filed them. The calls are words filed in the database; no cut-off is given here.

Key:
Cryptococcus neoformans [1] = experiment: Antifungal activity against Cryptococcus neoformans YC-11 by microdilution method; type: functional
Cryptococcus neoformans [2] = experiment: Antifungal activity against Cryptococcus neoformans YC-11 infected in BALB/c mouse assessed as increase in mouse survival at 1 mg/kg, iv qd for 5 days; type: functional, organism-based; parameters: dose 1 mg/kg
Cryptococcus neoformans [3] = experiment: Antifungal activity against Cryptococcus neoformans YC-11 infected in BALB/c mouse assessed as increase in mouse survival at 4 mg/kg, iv qd for 5 days; type: functional, organism-based; parameters: dose 4 mg/kg
Cryptococcus neoformans [4] = experiment: Antifungal activity against Cryptococcus neoformans YC-11 infected in BALB/c mouse assessed as reduction in fungal burden in brain at 1 mg/kg, iv qd for 5 days measured after 7 days of infection; type: functional
Cryptococcus neoformans [5] = experiment: Antifungal activity against Cryptococcus neoformans YC-11 infected in BALB/c mouse assessed as reduction in fungal burden in brain at 4 mg/kg, iv treated qd for 5 days measured after 7 days of infection; type: functional
Cryptococcus neoformans [6] = experiment: Antifungal activity against Cryptococcus neoformans YC-11 infected in BALB/c mouse brain assessed as reduction in fungal induced abscesses at 4 mg/kg, iv qd for 5 days measured after 7 days of infection by histopathological analysis; type: functional, organism-based; parameters: dose 4 mg/kg
Cryptococcus neoformans [7] = experiment: Antifungal activity against Cryptococcus neoformans YC-11 infected in BALB/c mouse brain assessed as reduction in multiple fungal induced abscesses at 1 mg/kg, iv qd for 5 days measured after 7 days of infection by histopathological analysis; type: functional, organism-based; parameters: dose 1 mg/kg
Cryptococcus neoformans [8] = experiment: Antifungal activity against Cryptococcus neoformans YC-11 infected in BALB/c mouse brain assessed as reduction in multiple fungal induced abscesses at 2 mg/kg, iv qd for 5 days measured after 7 days of infection by histopathological analysis; type: functional, organism-based; parameters: dose 2 mg/kg
Mus musculus = experiment: Toxicity in BALB/c mouse at 4 mg/kg, iv; type: organism-based; parameters: dose 4 mg/kg, route intravenous; details: in vivo
Cryptococcus neoformans [9] = experiment: Antifungal activity against Cryptococcus neoformans YC-11 infected in BALB/c mouse assessed as reduction in fungal burden in brain at 2 mg/kg, iv qd for 5 days measured after 7 days of infection; type: functional
Cryptococcus neoformans [10] = experiment: Antifungal activity against Cryptococcus neoformans YC-11 infected in BALB/c mouse assessed as increase in mouse survival at 0.5 mg/kg, iv qd for 5 days; type: functional, organism-based; parameters: dose 0.5 mg/kg
Cryptococcus neoformans [11] = experiment: Antifungal activity against Cryptococcus neoformans YC-11 infected in BALB/c mouse assessed as increase in mouse survival at 0.7 mg/kg, iv qd for 5 days; type: functional, organism-based; parameters: dose 0.7 mg/kg
Cryptococcus neoformans [12] = experiment: Antifungal activity against Cryptococcus neoformans YC-11 infected in BALB/c mouse kidney assessed as reduction in fungal induced tubular cell necrosis at 0.7 mg/kg, iv treated qd for 5 days measured after 7 days of infection by histopathological analysis; type: functional, organism-based; parameters: dose 0.7 mg/kg
Cryptococcus neoformans [13] = experiment: Antifungal activity against Cryptococcus neoformans YC-11 infected in BALB/c mouse liver assessed as reduction in fungal induced liver damage at 4 mg/kg, iv qd for 5 days measured after 7 days of infection by histopathological analysis; type: functional, organism-based; parameters: dose 4 mg/kg
Cryptococcus neoformans [14] = experiment: Antifungal activity against Cryptococcus neoformans YC-11 infected in BALB/c mouse liver assessed as reduction in fungal induced liver damage at 0.7 mg/kg, iv qd for 5 days measured after 7 days of infection by histopathological analysis; type: functional, organism-based; parameters: dose 0.7 mg/kg
Cryptococcus neoformans [15] = experiment: Antifungal activity against Cryptococcus neoformans YC-11 infected in BALB/c mouse assessed as increase in mouse survival at 80 mg/kg, iv qd for 5 days; type: functional, organism-based; parameters: dose 80 mg/kg
Cryptococcus neoformans [16] = experiment: Antifungal activity against Cryptococcus neoformans YC-11 infected in BALB/c mouse assessed as reduction in fungal burden in brain at 20 mg/kg, iv qd for 5 days measured after 7 days of infection; type: functional
Cryptococcus neoformans [17] = experiment: Antifungal activity against Cryptococcus neoformans YC-11 infected in BALB/c mouse assessed as reduction in fungal burden in brain at 80 mg/kg, iv qd for 5 days measured after 7 days of infection; type: functional
Cryptococcus neoformans [18] = experiment: Antifungal activity against Cryptococcus neoformans YC-11 infected in BALB/c mouse brain assessed as reduction in multiple fungal induced abscesses at 80 mg/kg, iv qd for 5 days measured after 7 days of infection by histopathological analysis; type: functional, organism-based; parameters: dose 80 mg/kg
Cryptococcus neoformans [19] = experiment: Antifungal activity against Cryptococcus neoformans YC-11 infected in BALB/c mouse assessed as reduction in fungal burden in brain at 40 mg/kg, iv qd for 5 days measured after 7 days of infection; type: functional

Row | SMILES | MIC (Cryptococcus neoformans [1]) | Activity (Cryptococcus neoformans [2]) | Activity (Cryptococcus neoformans [3]) | log10cfu (Cryptococcus neoformans [4]) | log10cfu (Cryptococcus neoformans [5]) | Activity (Cryptococcus neoformans [6]) | Activity (Cryptococcus neoformans [7]) | Activity (Cryptococcus neoformans [8]) | Activity (Mus musculus) | log10cfu (Cryptococcus neoformans [9]) | Activity (Cryptococcus neoformans [10]) | Activity (Cryptococcus neoformans [11]) | Activity (Cryptococcus neoformans [12]) | Activity (Cryptococcus neoformans [13]) | Activity (Cryptococcus neoformans [14]) | Activity (Cryptococcus neoformans [15]) | log10cfu (Cryptococcus neoformans [16]) | log10cfu (Cryptococcus neoformans [17]) | Activity (Cryptococcus neoformans [18]) | log10cfu (Cryptococcus neoformans [19])
1 | CNc1ccc(C(=O)CC(O)CC[C@H](C)[C@H]2OC(=O)C[C@H](O)CC(=O)C[C@H](O)C[C@H](O)C[C@H](O)C[C@H](O)C[C@]3(O)C[C@H](O)[C@@H](C(=O)NCCN(C)C)C(C[C@@H](OC4O[C@H](C)[C@@H](O)[C@H](NC(=O)CN(C)C)[C@@H]4O)/C=C/C=C/C=C/C=C\C=C/C=C/C=C/[C@@H]2C)O3)cc1.O=C1O[C@H]([C@H](O)CO)C(O)=C1O (some centres not stated) | 0.125 mg/L | Active | Active | 7.42 | 3.45 | Active | inactive | inactive | Non-toxic | 6.44 |  |  |  |  |  |  |  |  |  | 
2 | C[C@@H]1[C@H](O)[C@@H](C)/C=C/C=C/C=C/C=C/C=C/C=C/C=C/[C@H](O[C@@H]2O[C@H](C)[C@@H](O)[C@H](N)[C@@H]2O)C[C@@H]2O[C@](O)(C[C@@H](O)C[C@@H](O)[C@H](O)CC[C@@H](O)C[C@@H](O)CC(=O)O[C@H]1C)C[C@H](O)[C@H]2C(=O)O [AMPHOTERICIN B] | 0.25 mg/L (≈ 0.271 µM) |  |  |  |  |  |  |  |  |  | Active | Active | inactive | Active | Active |  |  |  |  | 
3 | OC(Cn1cncn1)(Cn1cncn1)c1ccc(F)cc1F [FLUCONAZOLE] | 2 mg/L (≈ 6.53 µM) |  |  |  |  |  |  |  |  |  |  |  |  |  |  | Active | 7.03 | 6.34 | inactive | 6.71
